{"source": "paper PMC3602653", "about": "“The brain slice method for studying drug distribution in the CNS” (Fluids and Barriers of the CNS, 2013)", "key": {"[1]": {"assay": "Brain slice method, unbound volume of distribution in the brain (mouse)", "settings": "NMRI mouse brain slices, 5 h incubation at 37°C; mean (standard deviation)", "description": "(§1) Drug-naïve male Sprague–Dawley 250–300 g rats and Naval Medical Research Institute (NMRI) 25–30 g mice were used (Taconic, Lille Skensved, Denmark).\n(§2) The composition of artificial cerebrospinal fluid or extracellular fluid (aECF) is crucial. […] Ascorbic acid is used as a natural free-radical scavenger to protect the cell membranes from lipid peroxidation and the brain slices from swelling [21].\n(§3) When deciding on the compounds of each cassette, the pKa values of the compounds should be taken into account. Because high concentrations of weak bases can increase the pH of the acidic intracellular compartments, the extent of lysosomal trapping of a weak base could be affected by the existence of another weak base. […] Consequently, it is recommended that the final aECF concentration of each studied compound in the cassette should be 100–200 nM and the total concentration of the studied compounds should not exceed 1 μM [18].\n(§4) Drug-naïve rats/mice are anesthetized with inhalation anesthesia using 5% isoflurane. When deep anesthesia is reached, up to 10 ml of blood (rats) is collected intracardially. The animal is then decapitated and the skull quickly opened. The isolated brain is immediately placed into blank ice-cold aECF saturated with oxygen. In our experience, the brains should be sliced within 15–20 minutes of harvesting to retain their viability.\n(§5) After discarding the first one or two brain slices, 6 (rat brain) or 10 (mouse brain) consecutive 300 μm brain slices are cut on a coronal plane, starting approximately 1.7 mm anterior to the bregma (rostral striatum).\n(§6) The incubation-equilibration process is started by gently transferring the 6 (rat) or 10 (mouse) brain slices from the storage beaker (using a micro double-ended spatula) into one 45 mm high, 80 mm diameter, flat-bottomed glass beaker (Duran Group, VWR, Sweden) containing 15 ml (rat) or 10 ml (mouse) of the aECF containing the selection of drugs to be investigated (Figure 1C). The beaker is then filled with humidified 100% oxygen over the aECF and covered with a custom-fabricated lid (Figure 1D) composed of a Teflon fluorinated ethylene-propylene (FEP) film (50 Å, 12.7 μm thick; DuPont, Katco Ltd, UK) as designed by Potter and DeMarse with minor modifications [23]. A “blank” beaker is also incubated in parallel to check stability of the compounds added into the buffer.\n(§7) Finally, the beaker is placed inside the small plastic box in the incubated shaker (e.g. MaxQ4450 Thermo Fisher Scientific, NinoLab, Sweden) for 5 h at 37°C (Figure 1E). Control of the temperature by an external thermometer is recommended. A rotation speed of 45 rpm and oxygen flow of about 75–80 ml per minute through a glass frit apparatus appear sufficient.\n(§8) Since the unbound drug concentration in the brain slice interstitial fluid at equilibrium is taken to be equal to the drug concentration in the aECF in the beaker, the presence of any minor debris from the brain tissue should be avoided in the sampled aECF after the 5 h incubation. To achieve this, the beaker needs to sit still for 5 minutes after finishing the incubation before sampling the aECF."}, "[2]": {"assay": "Brain slice method, unbound volume of distribution in the brain (rat)", "type": "in vitro ADME", "settings": "SD rat brain slices, 5 h incubation at 37°C; mean (standard deviation)", "description": "as §1, §2, §3, §4, §5, §6, §7, §8"}, "[3]": {"settings": "cited from earlier work"}, "[4]": {"settings": "cited from earlier work", "remark": "listed apart in the source"}, "[5]": {"assay": "Unbound brain-to-plasma concentration ratio (Kp,uu,brain), BBB net flux, from Kp,brain, Vu,brain and fu,plasma", "settings": "Kp,brain corrected for brain tissue uptake (Vu,brain from brain slice method) and plasma protein binding (fu,plasma)", "source_text": "It has been proposed by Fridén et al. that in vitro determination of Vu,brain in combination with in vivo determination of the total brain-to-plasma concentration ratio (Kp,brain) and in vitro determination of the fraction of unbound drug in plasma (fu,plasma) would allow rapid evaluation of unbound brain-to-plasma concentration ratio (Kp,uu,brain) (Figure 2). Moreover, combining Vu,brain with fu,brain would allow estimation of the unbound intracellular-to-extracellular concentration ratio (Kp,uu,cell). It is essential to emphasize that, in terms of predicting Cu,brainISF or Kp,uu,brain, rank ordering of compounds with respect to Vu,brain is futile, since there is no causal relationship.\nComplex evaluation of the abovementioned neuropharmacokinetic parameters gives insight to drug distribution in the brain. For instance, analogue of γ-aminobutyric acid gabapentin has Kp,brain equal to 0.64 [26]. However, after correction of Kp,brain for brain tissue uptake (using Vu,brain derived from the brain slice method) and plasma protein binding (using fu,plasma) the BBB net flux was estimated as a 0.14 meaning that only 14% of unbound drug in plasma is passing the BBB. Moreover, after passing BBB gabapentin (substrate to the large neutral amino acid transporter) tends to accumulate in the cells as it could be judged from Kp,uu,cell equal to 4.55 [6]."}}}
{"smiles": "CC(=O)O[C@@]12CO[C@@H]1C[C@H](O)[C@@]1(C)C(=O)[C@H](O)C3=C(C)[C@@H](OC(=O)[C@H](O)[C@@H](NC(=O)OC(C)(C)C)c4ccccc4)C[C@@](O)([C@@H](OC(=O)c4ccccc4)[C@H]21)C3(C)C", "note": "[Docetaxel]", "values": [{"measurement": "Vu,brain", "setting": "[1]", "value": "796 (177) ml·g brain^-1"}, {"measurement": "Vu,brain", "setting": "[2]", "value": "777 (217) ml·g brain^-1"}]}
{"smiles": "NCC1(CC(=O)O)CCCCC1", "note": "[Gabapentin]", "values": [{"measurement": "Vu,brain", "setting": "[1]", "value": "4.22 (0.93) ml·g brain^-1"}, {"measurement": "Vu,brain", "setting": "[2]", "value": "4.49 (0.29) ml·g brain^-1"}, {"measurement": "Kp,brain (total brain-to-plasma concentration ratio)", "setting": "[3]", "value": 0.64}, {"measurement": "Kp,uu,cell (unbound intracellular-to-extracellular concentration ratio)", "setting": "[4]", "value": 4.55}, {"measurement": "Kp uu", "setting": "[5]", "value": 0.14}]}
{"smiles": "COc1ccc2c(c1)c(CC(=O)O)c(C)n2C(=O)c1ccc(Cl)cc1", "note": "[Indomethacin]", "values": [{"measurement": "Vu,brain", "setting": "[1]", "value": "12.0 (1.8) ml·g brain^-1"}, {"measurement": "Vu,brain", "setting": "[2]", "value": "14.1 (1.8) ml·g brain^-1"}]}
{"smiles": "Fc1ccc([C@@H]2CCNC[C@H]2COc2ccc3c(c2)OCO3)cc1", "note": "[Paroxetine]", "values": [{"measurement": "Vu,brain", "setting": "[1]", "value": "596 (97) ml·g brain^-1"}, {"measurement": "Vu,brain", "setting": "[2]", "value": "714 (72) ml·g brain^-1"}]}
{"smiles": "CSc1ccc2c(c1)N(CCC1CCCCN1C)c1ccccc1S2", "note": "(stereo not shown) [Thioridazine]", "values": [{"measurement": "Vu,brain", "setting": "[1]", "value": "1930 (170) ml·g brain^-1"}, {"measurement": "Vu,brain", "setting": "[2]", "value": "2650 (232) ml·g brain^-1"}]}
